Values quoted from earlier work as cited in patent publication US6479045B2, “Vaginal pH buffering for preventing miscarriage and premature labor, by treating or preventing bacterial vaginosis” (Columbia Laboratories, Inc., priority 1999, dated 2002).

Test system: Bacterial Vaginosis
Details: within one month

Cc1ncc([N+](=O)[O-])n1CCO [metronidazole]
cure rate: approximately 70%
